Results from patent US20070014739A1, “Compositions and methods for controlling biofilms and bacterial infections” (priority 2005, published 2007).
“And” between values parts separate entries of the source, which are not always exact repeats. Identical values can stand only once.

Columns and labels:
[1] = system: Pseudomonas aeruginosa PA01; assay: Inhibition of biofilm formation and growth, 96-well plates, crystal violet; assay type: cell-based; conditions: for inhibited biofilm formation of P. aeruginosa PAO1: approximately 10 ug/ml, compared to the controls; for inhibitory effect on the growth of P. aeruginosa PA01: compared to controls
Protocol: An overnight culture of P. aeruginosa PA01 in LB+1% citrate was prepared. It was incubated at 37° C. shaker for 24 hours. A 1:20 dilution of the overnight culture was prepared. Test compounds are diluted appropriately with a volume of ethanol followed by shaking for approximately 5 minutes and then diluted with an appropriate volume of water.
Replicate 96-well plates are prepared, preferably two to four replicates, with appropriately diluted overnight culture and test compound in each well. Preferably, test compounds are prepared at 10 to 30 micrograms per milliliter. On each 96-well plate controls are appropriately prepared with at least one set of controls consisting of overnight culture and ethanol/water diluent and another set of controls consisting of growth media and ethanol/water diluent. Plates are covered with foil at room temperature and shaken for approximately 24 hours.
After shaking absorbance of the wells of the plates are determined, preferably at 630 nanometers. Liquid is than aspirated out of the wells and each well is filled with diluted crystal violet, preferably approximately 250 microliters of a 1:4 dilution, and allowed to stand for approximately 10 minutes. Each well of the plate is washed, preferably four times, with PBS with approximately one minute between each wash. After the final wash is aspirated out, the plate may be turned over onto paper towels to dump out excess PBS. 95% ethanol is added to each well, preferably 250 microliters. Absorbance of each well of a plate is determined, preferably at 540 nm. Preferably slight shaking is performed during the absorbance reading for approximately 5 minutes. Each well of the plate is than diluted […] with ethanol in a separate plate, preferably 145 ul of 95% ethanol and 5 uL from the original plate, and absorbance is determined. Preferably, slight shaking for approximately 3 minutes is performed.
Biofilm inhibition in each well is determined by subtracting the absorbance of the wells with test compounds from wells with controls containing overnight culture subtracting out controls with only media. A typical positive result of biofilm inhibition confirmed with replicates would be 30 percent to 80 percent less biofilm in the wells with test compound compared to the wells with controls of overnight culture.

[2] = system: P. aeruginosa strain PAO1; assay: Rotating disk reactor (RDR) biofilm test with and without tobramycin, culturable bacteria; assay type: cell-based, Pseudomonas aeruginosa
Protocol: Biofilm formation of P. aeruginosa was evaluated using a standardized biofilm method with a rotating disk reactor (RDR). This method provides a model resembling the formation of biofilms in cystic fibrosis patients. The rotating disk reactor consists of a one-liter glass beaker fitted with a drain spout. The bottom of the vessel contains a magnetically driven rotor with six 1.27 cm diameter coupons constructed from polystyrene. The rotor consists of a star-head magnetic stir bar upon which a disk was affixed to hold the coupons. The vessel with the stir bar was placed on a stir plate and rotated to provide fluid shear. A nutrient solution (AB Trace Medium with 0.3 mM glucose, see Table 3 below for composition) was added through a stopper in the top of the reactor at a flow rate of 5 ml/min. The reactor volume was approximately 180 ml and varied slightly between reactors depending on the placement of the drain spout and the rotational speed of the rotor. At a volume of 180 ml, the residence time of the reactors was 36 minutes. The reactors were operated at room temperature (c.a. 26° C.).
For each test, two RDRs were operated in parallel with one receiving test compound and the other serving as an untreated control. The RDRs were sterilized by autoclave, then filled with sterile medium and inoculated with P. aeruginosa strain PAO1. The reactors were then incubated at room temperature in batch mode (no medium flow) for a period of 24 hours, after which the flow was initiated for a further 24 hour incubation. Test compounds were dissolved in 10 ml ethanol to achieve a concentration of 1.8 mg/ml. After the 48 hours of biofilm development described above, the 10 ml of ethanol containing the test compounds were added to the reactor to achieve a final concentration of approximately 50, 100, or 200 μg/ml. Control reactors received 10 ml of ethanol. The reactors were then incubated for an additional 24 hours in batch (no flow) mode. After this incubation period, the six coupons were removed from each reactor and placed in 12-well polystyrene tissue culture plates with wells containing either 2 ml of a 100 μg/ml tobramycin solution or 2 ml of phosphate-buffered saline (PBS). These plates were incubated at room temperature for two hours. The coupons were then rinsed by three transfers to plates containing 2 ml of fresh PBS. For each two RDR reactors run in parallel, four sets of three coupons were obtained: one set with no test compound treatment and no tobramycin treatment, one set with no test compound treatment and tobramycin treatment, one set treated with a test compound treatment and no tobramycin treatment, and one set treated with a test compound treatment and tobramycin. After rinsing, one coupon of each set of three was stained with a LIVE/DEAD® BacLight™ Bacterial Viability Kit (Molecular Probes, Eugene Oreg.) and imaged using epifluorescent microscopy. The remaining two coupons were placed in 10 ml of PBS and sonicated for five minutes to remove and disperse biofilm cells. The resulting bacterial suspensions were then serially diluted in PBS and plated on tryptic soy agar plates for enumeration of culturable bacteria. The plates were incubated for 24 hours at 37° C. before colony forming units (CFU) were determined.
The results are averages from experiments performed on three separate days for each test compound. The values reported are as loglo CFU.

[3] = system: E. coli UT189[pCOMGFP]; assay: Biofilm pods (IBCs) in bladders of infected mice, intravesical compound, confocal microscopy; assay type: in vivo, Escherichia coli; conditions: vs controls
Protocol: The procedures in this example has been previously reported by Justice, S. et al. Differentiation and development pathways of uropathogenic Escherichia coli in urinary tract pathogenesis. PNAS, 2004, 101(5), p. 1333-1338. Briefly, E. coli UT189[pCOMGFP] was prepared after retrieval from frozen stocks by inoculating appropriately in LB medium statically for approximately 20 hours. Cells were harvested and suspended in 1 ml of PBS. Cells were diluted appropriately to achieve approximately a 10^8 CFU or 10^7 CFU input into C3H/HeN mice (2 mice per group).
Mice were deprived of water for approximately two hours. In experiment 1, all mice were anesthetized with 0.15 cc ketamine cocktail. In experiment 2, all mice were anesthetized with isofluorane. In experiment 1, urine was dispelled from the bladders and approximately 40 μg/ml of test compound or an appropriate amount of ethanol as control was introduced into the bladders via catheterization of the urethra using a tubing coated tuberculin syringe. 30 minutes was allowed to elapse. In experiment 2, bladders were not pre-incubated with test compounds. Bladders were then expelled and an inoculum of 10^8 CFU (Experiment 1) or 10^7 CFU (Experiment 2) of E. coli containing 40 μg/ml of test compound or equivalent amount of ethanol as controls were introduced into the bladders as indicated above.
In experiment 1 five hours elapsed and in experiment 2 six hours elapsed, and then mice were anesthetized and sacrificed appropriately. The bladders were removed, bisected, stretched, and fixed in 3% paraformaldehyde for 1 hour at room temperature. Bladders were then permeabilized in 0.01% Triton/PBS for 10 minutes and counter stained with TOPRO3 (Molecular Probes) for 10 minutes for visualization by confocal microscopy. Bladders were mounted on Prolong antifade (Molecular Probes).

[4] = system: E. coli clinical strain UT189 against bladder epithelial cells; assay: Binding to and invasion of bladder epithelial cells by E. coli; assay type: cell-based
Protocol: The effect of test compounds on bacterial invasion of E. coli clinical strain UT189 was studied as described in Elsinghorst, et al. 1994, Methods Enzymol, 236:405-420; and Martinez et al., 2000, EMBO J., 19:2803-2812. Epithelial bladder cells were grown in plates. Asiatic acid, corosolic acid, or ursolic acid were added at concentrations of 10 μg/ml, 20 μg/ml, or 40 μg/ml to bacteria and epithelial cells for approximately 5, 15, 30, or 60 minutes with approximately 10^7 CFU of E. coli. Binding was assessed at time zero and invasion was assessed at approximately 5, 15, 30, or 60 minutes from completing the mixture of compound, bacteria, and epithelial cells. As a control ethanol was added to cells to a final concentration of 0.1%. The effect of bacterial viability and bacterial adherence during the infection period was evaluated according to the methods described in Martinez et al., 2000, EMBO J., 19:2803-2812.

[5] = system: E. coli clinical strain UT189; assay: Inhibition of biofilm formation, crystal violet, 96 well plates; assay type: cell-based; conditions: Escherichia coli; 20 ug/ml; read-out: inhibited biofilm formation of the UT189 strain
Protocol: Biofilm inhibition experiments were conducted using an assay adapted from the reported protocol described in Pratt and Kolter, 1998, Molecular Microbiology, 30: 285-293; Li et al., 2001, J. Bacteriol., 183: 897-908. E. coli clinical strain UT189 was grown in LB in 96 well plates at room temperature for one or two days without shaking. E. coli laboratory strain JM109 was grown in LB plus 0.2% glucose in 96 well plates at room temperature for one day without shaking. To quantify the biofilm mass, the suspension culture was poured out and the biofilm was washed three times with water. The biofilm was stained with 0.1% crystal violet for 20 minutes. The plates were then washed three times with water. OD reading at 540 nm was measured to quantify the biofilm mass at the bottom of the wells. Then 95% ethanol was added to dissolve the dye at the bottom and on the wall and the OD reading at 540 nm was measured to quantify the total biofilm mass. To study the overall effect of the compounds (3.6 mg/mL in 100% ethanol as stock solution), it was added with the inoculation and a time course of biofilm mass was measured. Appropriate amounts of 100% ethanol were added to each sample to eliminate the effect of solvent. Each condition had 3-4 replicates on each plate and was performed over multiple days.

[6] = system: methicillin-resistant Staphylococcus aureus; conditions: cited from earlier work

3-hydroxy-12,20(30) ursadienoic acid [3-hydroxy-12, 20(30) ursadienoic acid]
inhibited biofilm formation of P. aeruginosa PAO1 [1]: about 40%
inhibitory effect on the growth of P. aeruginosa PA01 [1]: no inhibitory effect

Echinocystic Acid
inhibited biofilm formation of P. aeruginosa PAO1 [1]: ~25%
inhibitory effect on the growth of P. aeruginosa PA01 [1]: no inhibitory effect

C=C1CCC2(C(=O)O)CCC3(C)C(=CCC4C5(C)CCC(O)C(C)(C)C5CCC43C)C2C1C (centres unmarked) [Pygenic acid B, Pygenic Acid B]
inhibited biofilm formation of P. aeruginosa PAO1 [1]: ~30%
inhibitory effect on the growth of P. aeruginosa PA01 [1]: no inhibitory effect

NC[C@H]1O[C@H](O[C@H]2[C@H](O)[C@@H](O[C@H]3O[C@H](CO)[C@@H](O)[C@H](N)[C@H]3O)[C@H](N)C[C@@H]2N)[C@H](N)C[C@@H]1O [Tobramycin, reference compound]
CFU, Tobramycin ([2]; tobramycin 100 μg/ml 2 h, no test compound, parallel reactor of the experiment): 5.8 loglo CFU and 6.5 loglo CFU and 6.1 loglo CFU and 6.7 loglo CFU and 6.2 loglo CFU

C[C@@H]1CC[C@]2(C(=O)O)CC[C@]3(C)C(=CCC4[C@@]5(C)C[C@@H](O)[C@@H](O)C(C)(C)C5CC[C@]43C)C2[C@H]1C (some centres unmarked) [Pygenic acid A, Pygenic Acid A]
inhibited biofilm formation of P. aeruginosa PAO1 [1]: about 40%
inhibitory effect on the growth of P. aeruginosa PA01 [1]: no inhibitory effect

C[C@@H]1CC[C@]2(C(=O)O)CCC3(C)C(=CCC4C5(C)C[C@@H](O)[C@H](O)C(C)(C)C5CCC43C)C2[C@H]1C (some centres unmarked) [Corosolic acid]
CFU, Test Compound ([2]; test compound 100 μg/ml 24 h, no tobramycin, average of three days): 7.8 loglo CFU
CFU, Tobramycin and Test Compound ([2]; test compound 100 μg/ml 24 h, then tobramycin 100 μg/ml 2 h, average of three days): 5.3 loglo CFU
reduction in biofilm pods or IBCs in the bladders of mice ([3]; experiment 1: C3H/HeN mice, 40 μg/ml intravesical with 30 min pre-incubation, 10^8 CFU, five hours): 94%
reduction in large biofilm pods or large IBCs in the bladders of mice ([3]; experiment 2: C3H/HeN mice, 40 μg/ml in inoculum, no pre-incubation, 10^7 CFU, six hours): ~60%
reduced invasion of E. coli into bladder epithelial cells ([4]; 20 μg/ml, 60 minutes, n=4): 65%
reduced invasion of E. coli into bladder epithelial cells ([4]; 40 µg/ml, 5 minutes, triplicate, compared to the controls): 10%
reduced invasion of E. coli into bladder epithelial cells ([4]; 40 µg/ml, 15 minutes, triplicate, compared to the controls): 70%
reduced invasion of E. coli into bladder epithelial cells ([4]; 40 μg/ml, 60 minutes, separate experiments (n=4 to 7)): 90%
reduced invasion of E. coli into bladder epithelial cells ([4]; 40 µg/ml, 60 minutes, triplicate, compared to the controls): 90%
inhibition at 20 µg/mL [5]: ~85%

CC(=O)OC1CCC2(C)C(CCC3(C)C2CC=C2[C@@H]4CC(C)(C)CCC4(C(=O)O)CCC23C)C1(C)C (some centres unmarked) [3-acetyl oleanolic acid]
inhibited biofilm formation of P. aeruginosa PAO1 [1]: ~50%
inhibitory effect on the growth of P. aeruginosa PA01 [1]: no inhibitory effect

CO[C@H]1/C=C/O[C@@]2(C)Oc3c(C)c(O)c4c(O)c(c(/C=N/N5CCN(C)CC5)c(O)c4c3C2=O)NC(=O)/C(C)=C\C=C\[C@H](C)[C@H](O)[C@@H](C)[C@@H](O)[C@@H](C)[C@H](OC(C)=O)[C@@H]1C [rifampin]
eradication of methicillin-resistant Staphylococcus aureus in a biofilm ([6]; biofilm, urinary catheters): unable to eradicate
effect against planktonic, or suspended cells ([6]; planktonic cells): effective
